Experimental data published in US10774064B2 (Cadent Therapeutics, Inc., priority 2016, dated 2020).

Target: T1, small-conductance Ca2+-activated K+ channels (SK channels, subtype 2) (Homo sapiens, UniProt Q9H2S1)
T1 construct: expressed in transfected cells; host or cells: HEK293
Assay: whole-cell patch-clamp of ionic current through SK2 channels in HEK293 cells (SC100)
Type: cell-based
Conditions: concentration that increases the basal current by 100%; HEK293 cells expressing SK2 channels
How it was run: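 Whole-cell patch-clamp recording of current in HEK293 cells expressing SK2 channels. SC100 is the compound concentration that increases basal current by 100%.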

Row | Structure (SMILES) | SC100
1 | Cc1cc(C)n(-c2nc(NCc3ncco3)cc(NC3CCC(F)(F)CC3)n2)n1 [Compound 145, N4-(4,4-difluorocyclohexyl)-2-(3,5-dimethyl-1H-pyrazol-1-yl)-N6-(oxazol-2-ylmethyl)pyrimidine-4,6-diamine] | + (+ means >1 uM)
2 | Cc1cc(C)n(-c2nc(NC3CCC(F)(F)CC3)cc(N3CCO[C@@H](CO)C3)n2)n1 (single isomer, unassigned) [Compound 112, (+)-(4-(6-((4,4-difluorocyclohexyl)amino)-2-(3,5-dimethyl-1H-pyrazol-1-yl)pyrimidin-4-yl)morpholin-2-yl)methanol] | ++ (++ means 200 nM-1000 nM)
3 | Cc1cc(C)n(-c2cc(NC(C(N)=O)C(C)C)cc(NC3CCC(F)(F)CC3)n2)n1 (centres unmarked) [Compound 239, 2-((2-((4,4-difluorocyclohexyl)amino)-6-(3,5-dimethyl-1H-pyrazol-1-yl)pyridin-4-yl)amino)-3-methylbutanamide] | ++ (++ means 200 nM-1000 nM)
4 | Cc1cc(NC2CCC(F)(F)CC2)nc(-n2nc(C)c(F)c2C)n1 [Compound 201, N-(4,4-difluorocyclohexyl)-2-(4-fluoro-3,5-dimethyl-1H-pyrazol-1-yl)-6-methylpyrimidin-4-amine] | ++ (++ means 200 nM-1000 nM)
5 | Cc1cn(-c2nc(NC3CCC(F)(F)CC3)cc(OC3CN(C(=O)C(C)(C)C)C3)n2)nc1CF [Compound 309, 1-(3-((6-((4,4-difluorocyclohexyl)amino)-2-(3-(fluoromethyl)-4-methyl-1H-pyrazol-1-yl)pyrimidin-4-yl)oxy)azetidin-1-yl)-2,2-dimethylpropan-1-one] | ++ (++ means 200 nM-1000 nM)
6 | Cc1cc(C)n(-c2nc(CN3CCN(C)CC3)cc(NC3CCC(F)(F)CC3)n2)n1 [Compound 178, N-(4,4-difluorocyclohexyl)-2-(3,5-dimethyl-1H-pyrazol-1-yl)-6-((4-methylpiperazin-1-yl)methyl)pyrimidin-4-amine] | + (+ means >1 uM)
7 | CC(=O)NCc1cc(NC2CCC(F)(F)CC2)nc(-n2cc(C)c(CF)n2)c1 [Compound 349, N-((2-((4,4-difluorocyclohexyl)amino)-6-(3-(fluoromethyl)-4-methyl-1H-pyrazol-1-yl)pyridin-4-yl)methyl)acetamide] | ++ (++ means 200 nM-1000 nM)
8 | Cc1csc(-c2nc(NC3CCC(F)(F)CC3)cc(C(C)O)n2)n1 (racemic) [Compound 362, 1-(6-((4,4-difluorocyclohexyl)amino)-2-(4-methylthiazol-2-yl)pyrimidin-4-yl)ethan-1-ol] | ++ (++ means 200 nM-1000 nM)

Same assay, conditions: whole-cell patch-clamp, HEK293 cells expressing SK2 channels; concentration that increases the basal current by 100%

Row | Structure (SMILES) | SC100 (μM)
9 | Cc1cc(C)n(-c2nc(NC3CCC(F)(F)CC3)cc(N3CCOC(COC(C)C)C3)n2)n1 (centres unmarked) [IN10964-008-P1] | ++ (++ means 200 nM-1000 nM)
10 | Cc1ccn(-c2cc(N(C)C)nc(NC3CCC(F)(F)CC3)n2)n1 [NSSy6677] | + (+ means >1 uM)
11 | Cc1csc(-c2nc(NC3CCCCC3=O)cc(N3CCOCC3)n2)n1 (centres unmarked) [IN11140-065-P1, 2-((2-(4-methylthiazol-2-yl)-6-morpholinopyrimidin-4-yl)amino)cyclohexan-1-one] | + (+ means >1 uM)
12 | Cc1ccn(-c2cc(CF)cc(NC3CCC(F)(F)CC3)n2)n1 [NSSy5829, N-(4,4-difluorocyclohexyl)-4-(fluoromethyl)-6-(3-methyl-1H-pyrazol-1-yl)pyridin-2-amine] | ++ (++ means 200 nM-1000 nM)
13 | Cc1ccn(-c2cc(N3CC(C)(O)C3)cc(NC3CCC(F)(F)CC3)n2)n1 [NSSy5721] | ++ (++ means 200 nM-1000 nM)
14 | Cc1csc(-c2cc(CN)cc(NC3CCC(F)(F)CC3)n2)n1 [IN11133-049-P1, 4-(aminomethyl)-N-(4,4-difluorocyclohexyl)-6-(4-methylthiazol-2-yl)pyridin-2-amine] | ++ (++ means 200 nM-1000 nM)
15 | Cc1cc(NC2CCC(F)(F)CC2)nc(-n2ccc(O)n2)n1 [NSSy7027, 1-(4-((4,4-difluorocyclohexyl)amino)-6-methylpyrimidin-2-yl)-1H-pyrazol-3-ol] | + (+ means >1 uM)
16 | Cc1csc(-c2cc(CNC=O)cc(NC3CCC(F)(F)CC3)n2)n1 [IN11133-037-P1] | +++ (+++ means <200 nM)
17 | Cc1cc(C)n(-c2cc(C)c(NC3CCC(F)(F)CC3)nn2)n1 [IN10966-083-P1, N-(4,4-difluorocyclohexyl)-6-(3,5-dimethyl-1H-pyrazol-1-yl)-4-methylpyridazin-3-amine] | + (+ means >1 uM)
18 | Fc1ccn(-c2nc(NC3CCC(F)(F)CC3)cc(N3CCOCC3)n2)n1 [NSSy6343] | + (+ means >1 uM)
19 | COc1c(NC2CCC(F)(F)CC2)nc(-c2nc(C)cs2)n(CC#N)c1=O [IN11196-065-P1] | + (+ means >1 uM)
20 | FC1(F)CCC(Nc2cc(N3CCOCC3)nc(-n3ccc(C(F)(F)F)n3)n2)CC1 [IN11079-009-P1, N-(4,4-difluorocyclohexyl)-6-morpholino-2-(3-(trifluoromethyl)-1H-pyrazol-1-yl)pyrimidin-4-amine] | ++ (++ means 200 nM-1000 nM)
21 | Cc1cc(NC2CCC(F)(F)CC2)nc(-n2cc(-n3cc(F)c(C)n3)c(C)n2)n1 [IN11216-072-P1] | + (+ means >1 uM)
22 | CCOc1cc(NC2CCC(F)(F)CC2)nc(-c2nc(C)cs2)n1 [IN11055-015-P1] | + (+ means >1 uM)
23 | Cc1ccn(-c2cc(COc3ncc(F)cn3)cc(NC3CCC(F)(F)CC3)n2)n1 [NSSy5861] | ++ (++ means 200 nM-1000 nM)
24 | CCN(CC)CC1CN(c2cc(NC3CCC(F)(F)CC3)nc(-c3nc(C)cs3)n2)CCO1 (centres unmarked) [IN10881-092-P1] | +++ (+++ means <200 nM)
25 | COC[C@@H]1CN(c2cc(NC3CCC(F)(F)CC3)nc(-c3nc(C)cs3)n2)CCO1 [NSSy5795] | ++ (++ means 200 nM-1000 nM)
26 | COC(=O)NCc1cc(NC2CCC(F)(F)CC2)nc(-n2ccc(C)n2)n1 [IN11053-033-P1, methyl ((6-((4,4-difluorocyclohexyl)amino)-2-(3-methyl-1H-pyrazol-1-yl)pyrimidin-4-yl)methyl) carbamate] | + (+ means >1 uM)
27 | COCCNc1cc(-n2ccc(C)n2)nc(NC2CCC(F)(F)CC2)n1 [NSSy6700] | + (+ means >1 uM)
28 | Cc1csc(-c2nc(NC3CCC(F)(F)CC3)cc(=O)n2CC#N)n1 [IN11196-007-P2, 2-(4-((4,4-difluorocyclohexyl)amino)-2-(4-methylthiazol-2-yl)-6-oxopyrimidin-1(6H)-yl)acetonitrile] | + (+ means >1 uM)
29 | Cc1ccn(-c2nc(NC3CCC(F)(F)CC3)cc(N3CC(F)(F)OC(F)(F)C3)n2)n1 [IN11030-044-P1] | ++ (++ means 200 nM-1000 nM)
30 | Cc1nn(-c2nc(NC3CCC(F)(F)CC3)cc(N3CCOCC3)n2)c(C)c1F [NSSy7011] | ++ (++ means 200 nM-1000 nM)
31 | NC(=O)OCc1cc(NC2CCC(F)(F)CC2)nc(-n2ccc(C3CC3)n2)n1 [IN11239-001-P1, (2-(3-cyclopropyl-1H-pyrazol-1-yl)-6-((4,4-difluorocyclohexyl)amino)pyrimidin-4-yl)methyl carbamate] | ++ (++ means 200 nM-1000 nM)
32 | Cc1csc(-c2cc(-c3nc(C)cs3)nc(NC3CCC(F)(F)CC3)n2)n1 [NSSy6704, N-(4,4-difluorocyclohexyl)-4,6-bis(4-methylthiazol-2-yl)pyrimidin-2-amine] | + (+ means >1 uM)
